{"source": "patent US20240228488A1", "about": "(TAKEDA PHARMACEUTICAL COMPANY LIMITED, priority 2021, published 2024)", "data": [{"target": "human activated kallikrein enzyme (Homo sapiens, UniProt P03952)", "sequence (P03952 391-638 limits assumed)": "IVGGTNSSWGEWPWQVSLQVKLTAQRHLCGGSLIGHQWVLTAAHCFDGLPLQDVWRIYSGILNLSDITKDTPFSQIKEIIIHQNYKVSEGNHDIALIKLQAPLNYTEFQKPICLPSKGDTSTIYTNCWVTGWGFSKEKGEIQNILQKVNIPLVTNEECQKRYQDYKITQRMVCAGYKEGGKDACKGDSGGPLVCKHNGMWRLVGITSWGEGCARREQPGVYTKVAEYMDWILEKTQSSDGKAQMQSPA", "sequence (P03952 20-390 partner limits assumed)": "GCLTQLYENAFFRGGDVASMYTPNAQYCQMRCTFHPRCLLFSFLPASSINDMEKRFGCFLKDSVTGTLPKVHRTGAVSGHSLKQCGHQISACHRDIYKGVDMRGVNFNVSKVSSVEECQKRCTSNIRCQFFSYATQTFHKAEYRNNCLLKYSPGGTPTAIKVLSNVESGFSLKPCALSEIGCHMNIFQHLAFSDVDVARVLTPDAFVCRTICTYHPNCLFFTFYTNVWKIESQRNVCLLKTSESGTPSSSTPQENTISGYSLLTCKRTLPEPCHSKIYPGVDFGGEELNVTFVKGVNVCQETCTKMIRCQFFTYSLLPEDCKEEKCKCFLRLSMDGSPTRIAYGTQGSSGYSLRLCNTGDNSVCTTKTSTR", "assay": "Plasma kallikrein inhibition, fluorogenic PFR-AMC substrate, 500 pM activated kallikrein format", "format": "biochemical", "details": "500 pM activated kallikrein, 300 uM PFR-AMC, 30 min preincubation, 10 min reaction; read-out: Primary Dose Response Assay: Average EC50", "outline": "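Fluorogenic readout (ex 380 / em 460 nm) after 10 min room-temperature reaction with 300 uM Pro-Phe-Arg-AMC substrate, following 30 min preincubation of inhibitors with 500 pM enzyme. Buffer: Tris pH 7.5, EDTA, NaCl, PEG-400, Triton X-100. Values given as EC50 ranges.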", "units": {"EC50": "nM"}, "values": [{"smiles": "Nc1ccc(Cl)cc1[C@H]1C[C@@H]1C(=O)Nc1cc(NCc2cn3cc(C4CC4)ccc3n2)ncn1", "note": "(racemic) [Example 279, rac-(1S*,2S*)-2-(2-amino-5-chlorophenyl)-N-(6-(((6-cyclopropylimidazo[1,2-a]pyridin-2-yl)methyl)amino)pyrimidin-4-yl)cyclopropane-1-carboxamide]", "EC50": "100 to 1000"}, {"smiles": "Cc1ccnc([C@H]2C[C@]2(F)C(=O)Nc2cc(N[C@H](C)c3cn4cc(C5CC5)cc(N5CC(=O)N(C)C5=O)c4n3)nc(C)n2)n1", "note": "(racemic) [Example 528, rac-(1S*,2S*)-N-(6-(((R)-1-(6-cyclopropyl-8-(3-methyl-2,4-dioxoimidazolidin-1-yl)imidazo[1,2-a]pyridin-2-yl)ethyl)amino)-2-methylpyrimidin-4-yl)-1-fluoro-2-(4-methylpyrimidin-2-yl)cyclopropane-1-carboxamide]", "EC50": "1 to 10"}, {"smiles": "O=C(Nc1cc(NCc2cn3cc(C4CC4)cc(N4CC(F)C4)c3n2)ncn1)[C@H]1C[C@@H]1c1cccc(Cl)c1", "note": "[Example I-145, (1S,2S)-2-(3-chlorophenyl)-N-(6-(((6-cyclopropyl-8-(3-fluoroazetidin-1-yl)imidazo[1,2-a]pyridin-2-yl)methyl)amino)pyrimidin-4-yl)cyclopropane-1-carboxamide]", "EC50": "10 to 100"}, {"smiles": "CC(C)(C)OC(=O)Nc1ccc([C@H]2C[C@@H]2C(=O)Nc2cc(NCc3cn4cc(C5CC5)ccc4n3)ncn2)cc1Cl", "note": "(racemic) [Example I-188, rac-tert-butyl (2-chloro-4-((1S*,2S*)-2-((6-(((6-cyclopropylimidazo[1,2-a]pyridin-2-yl)methyl)amino)pyrimidin-4-yl)carbamoyl)cyclopropyl)phenyl)carbamate]", "EC50": "> 6000"}, {"smiles": "Nc1c(Cl)cccc1[C@H]1C[C@@H]1C(=O)Nc1cc(NCc2cn3cc(C4CC4)ccc3n2)ncn1", "note": "(racemic) [Example 280, rac-(1S*,2S*)-2-(2-amino-3-chlorophenyl)-N-(6-(((6-cyclopropylimidazo[1,2-a]pyridin-2-yl)methyl)amino)pyrimidin-4-yl)cyclopropane-1-carboxamide]", "EC50": "> 6000"}, {"smiles": "Cc1ccnc([C@H]2C[C@@H]2C(=O)Nc2cc(N[C@@H](C)c3cn4cc(C(F)F)cc(N5CC(=O)N(C)C5=O)c4n3)nc(C)n2)n1", "note": "[Example 427, (1S,2S)-N-(6-(((S)-1-(6-(difluoromethyl)-8-(3-methyl-2,4-dioxoimidazolidin-1-yl)imidazo[1,2-a]pyridin-2-yl)ethyl)amino)-2-methylpyrimidin-4-yl)-2-(4-methylpyrimidin-2-yl)cyclopropane-1-carboxamide]", "EC50": "10 to 100"}, {"smiles": "O=C(Nc1cc(NCc2cn3cc(C4CC4)ccc3n2)ncn1)[C@H]1C[C@@H]1c1cc(Cl)ccc1F", "note": "(racemic) [Example 44, rac-(1S*,2S*)-2-(5-chloro-2-fluorophenyl)-N-(6-(((6-cyclopropylimidazo[1,2-a]pyridin-2-yl)methyl)amino)pyrimidin-4-yl)cyclopropane-1-carboxamide]", "EC50": "10 to 100"}, {"smiles": "O=C(Nc1nnc(NCc2cn3cc(C4CC4)ccc3n2)s1)[C@H]1C[C@@H]1c1cccc(Cl)c1", "note": "[Example 606, (1S,2S)-2-(3-chlorophenyl)-N-(5-(((6-cyclopropylimidazo[1,2-a]pyridin-2-yl)methyl)amino)-1,3,4-thiadiazol-2-yl)cyclopropane-1-carboxamide]", "EC50": "> 6000"}, {"smiles": "C[S+]([O-])c1nc(NCc2cn3cc(C4CC4)ccc3n2)cc(NC(=O)[C@H]2C[C@@H]2c2cccc(Cl)c2)n1", "note": "(relative stereo) [Example 109, rac-(1S*,2S*)-2-(3-chlorophenyl)-N-(6-(((6-cyclopropylimidazo[1,2-a]pyridin-2-yl)methyl)amino)-2-(methylsulfinyl)pyrimidin-4-yl)cyclopropane-1-carboxamide]", "EC50": "1 to 10"}, {"smiles": "O=C(Nc1cc(NCc2cn3cc(C4CC4)cc(N4CCN(CC(F)(F)F)CC4)c3n2)ccn1)[C@H]1C[C@@H]1c1cccc(Cl)c1", "note": "(racemic) [Example I-20]", "EC50": "1 to 10"}, {"smiles": "Cc1cc2nn(Cc3cn4cc(C5CC5)ccc4n3)cc2c(NC(=O)[C@H]2C[C@@H]2c2cccc(Cl)c2)n1", "note": "[Example 581, (1S,2S)-2-(3-chlorophenyl)-N-(2-((6-cyclopropylimidazo[1,2-a]pyridin-2-yl)methyl)-6-methyl-2H-pyrazolo[4,3-c]pyridin-4-yl)cyclopropane-1-carboxamide]", "EC50": "1 to 10"}, {"smiles": "Cc1ccnc([C@H]2C[C@@H]2C(=O)Nc2cccc(SCc3cn4cc(C5CC5)cc(N5CC(=O)N(C)C5=O)c4n3)c2)n1", "note": "[Example I-645, (1S,2S)—N-(3-(((6-cyclopropyl-8-(3-methyl-2,4-dioxoimidazolidin-1-yl)imidazo[1,2-a]pyridin-2-yl)methyl)thio)phenyl)-2-(4-methylpyrimidin-2-yl)cyclopropane-1-carboxamide]", "EC50": "10 to 100"}, {"smiles": "O=C(Nc1cc(N2C[C@@H](CO)C[C@@H]2c2cn3cc(C4CC4)ccc3n2)ncn1)[C@H]1C[C@@H]1c1cc(Cl)ccn1", "note": "[Example 442, (1S,2S)-2-(4-chloropyridin-2-yl)-N-(6-((2R,4S)-2-(6-cyclopropylimidazo[1,2-a]pyridin-2-yl)-4-(hydroxymethyl)pyrrolidin-1-yl)pyrimidin-4-yl)cyclopropane-1-carboxamide]", "EC50": "1000 to 6000"}, {"smiles": "Nc1ccc([C@H]2C[C@@H]2C(=O)Nc2cc(NCc3cn4cc(C5CC5)ccc4n3)ncn2)cc1Cl", "note": "(racemic) [Example 278, rac-(1S*,2S*)-2-(4-amino-3-chlorophenyl)-N-(6-(((6-cyclopropylimidazo[1,2-a]pyridin-2-yl)methyl)amino)pyrimidin-4-yl)cyclopropane-1-carboxamide]", "EC50": "100 to 1000"}, {"smiles": "CCOC(=O)c1nc(NCc2cn3cc(C4CC4)ccc3n2)cc(NC(=O)[C@H]2C[C@@H]2c2cccc(Cl)c2)n1", "note": "(racemic) [Example 111, rac-ethyl 4-((1S*,2S*)-2-(3-chlorophenyl)cyclopropane-1-carboxamido)-6-(((6-cyclopropylimidazo[1,2-a]pyridin-2-yl)methyl)amino)pyrimidine-2-carboxylate]", "EC50": "1 to 10"}, {"smiles": "Cc1ccnc([C@H]2C[C@@H]2C(=O)Nc2cc(OCc3cn4c(N5CC(=O)N(C)C5=O)cc(C5CC5)cc4n3)ncn2)n1", "note": "[Example 554, (1S,2S)-N-(6-((7-cyclopropyl-5-(3-methyl-2,4-dioxoimidazolidin-1-yl)imidazo[1,2-a]pyridin-2-yl)methoxy)pyrimidin-4-yl)-2-(4-methylpyrimidin-2-yl)cyclopropane-1-carboxamide]", "EC50": "100 to 1000"}, {"smiles": "CN1CCN(c2cc(Cl)cn3cc(CNc4ccnc(NC(=O)[C@H]5C[C@@H]5c5cccc(Cl)c5)c4)nc23)CC1", "note": "[Example I-252, (1S,2S)-N-(4-(((6-chloro-8-(4-methylpiperazin-1-yl)imidazo[1,2-a]pyridin-2-yl)methyl)amino)pyridin-2-yl)-2-(3-chlorophenyl)cyclopropane-1-carboxamide]", "EC50": "< 1"}, {"smiles": "O=C(Nc1cc(NCc2cn3cc(C4CC4)ccc3n2)ncn1)[C@H]1C[C@@H]1c1nccc(Cl)n1", "note": "(racemic) [Example I-177, rac-(1S*,2S*)-2-(4-chloropyrimidin-2-yl)-N-(6-(((6-cyclopropylimidazo[1,2-a]pyridin-2-yl)methyl)amino)pyrimidin-4-yl)cyclopropane-1-carboxamide]", "EC50": "< 1"}]}]}
